For 18 compounds, IC50 results are on record in patent US8283373B2, “Inhibitors of cytosolic phospholipase A2” (Pfizer Inc., priority 2005, dated 2012).

One experiment has as its system TXB2. The experiment is described as follows: Rat Whole Blood Assay (A23187-stimulated TXB2). The class given is cell-based. As to conditions: A23187 5 μM. The protocol:
Fresh blood was collected in heparinized tubes by cardiac puncture of male Sprague-Dawley rats. Aliquots of blood (0.6 mL) were incubated with either 6 μL solvent (DMSO), or 6 μL of test compounds at various concentrations for 15 minutes at 37° C. This was followed by incubation of the blood with 6 μL of calcium ionophore, A23187 (Sigma C-7522) diluted in DMSO for 10 min at 37° C. The final concentration of A23187 was 5 μM. DMSO (6 μL) was added in the unstimulated controls. The reactions were stopped by mixing 60 μL cold EDTA to give a final concentration of 20 mM. The blood was centrifuged at 6,500 rpm for 10 min on a microcentrifuge to obtain plasma. A 70 μL aliquot of plasma was mixed with 400 μL cold methanol for protein precipitation. After incubation at −80° C. for 30 min, the supernatant was obtained by centrifuging at 6,500 rpm for 10 min, and was assayed for TXB2 according to the manufacturer's procedure (Assay Designs, Inc.'s ELISA kit #900-002).

Another experiment addresses T1, cPLA2α (Homo sapiens, UniProt P47712).
T1 sequence (P47712 1-749): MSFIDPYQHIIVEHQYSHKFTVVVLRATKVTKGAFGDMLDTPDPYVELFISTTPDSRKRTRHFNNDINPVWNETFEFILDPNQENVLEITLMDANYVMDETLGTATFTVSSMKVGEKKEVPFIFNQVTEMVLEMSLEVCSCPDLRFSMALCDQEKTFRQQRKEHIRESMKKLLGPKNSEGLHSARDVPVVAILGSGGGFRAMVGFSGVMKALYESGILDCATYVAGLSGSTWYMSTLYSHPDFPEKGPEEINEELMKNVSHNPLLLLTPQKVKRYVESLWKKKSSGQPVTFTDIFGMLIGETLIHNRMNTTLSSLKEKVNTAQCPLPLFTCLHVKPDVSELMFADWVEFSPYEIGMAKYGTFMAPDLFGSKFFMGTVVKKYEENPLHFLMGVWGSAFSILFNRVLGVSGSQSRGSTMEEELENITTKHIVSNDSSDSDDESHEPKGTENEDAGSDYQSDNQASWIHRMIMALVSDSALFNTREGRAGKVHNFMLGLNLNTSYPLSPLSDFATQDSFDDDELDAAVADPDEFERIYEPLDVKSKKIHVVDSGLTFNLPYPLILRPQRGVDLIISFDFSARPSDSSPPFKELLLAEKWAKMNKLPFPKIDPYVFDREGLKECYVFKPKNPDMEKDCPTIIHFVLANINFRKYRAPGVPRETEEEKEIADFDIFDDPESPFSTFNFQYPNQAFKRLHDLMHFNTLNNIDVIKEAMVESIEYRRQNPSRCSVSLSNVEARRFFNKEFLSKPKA
The experiment is described as follows: GLU Micelle Assay. The experiment is classed as biochemical. As to the method:
The assay was carried in a 96-well format using a fluorescent plate reader with a 355 nm excitation filter and a 460 nm emission filter (Lab Systems Fluoroscan II, Helsinki, Finland). The assay buffer contained 940 μM Triton X-100, 50 mM Hepes pH 7.4, 0.3 mM EDTA, 1 mM CaCl2 and 300 mM KCl. DTPC (1,2-O-tetradecyl-sn-glycero-3-phosphocholine, Avanti) at a final concentration of 120 μM was added the day of the experiment and GLU (7-Hydroxycoumarinyl-γ-linolenate, Biomol Research Lab, Inc.) at a final concentration of 90 μM was added immediately prior to each assay.
Compounds (10 μL) dissolved in DMSO were placed in duplicate wells of a black 96-well plate. Wells corresponding to the positive and negative controls contained DMSO without inhibitors. Just prior to the experiment, 200 μL assay buffer containing 90 μM GLU and 120 μM DTPC was added to all wells in the assay plate. Assay buffer (50 μL) was added to the negative, and 50 μL cPLA2α solution ([…] in assay buffer) was added to all other wells to initiate the reaction. The final concentration of enzyme was 1 μg/ml. The content of each well was mixed gently during the addition of the enzyme, and the plate was rapidly transferred to the fluorescent plate reader. The increase in fluorescence was read every 4 min for 84 min. The slope of the resulting line was determined and the inhibition was calculated using the equation below: Percent Inhibition=[1−(slope with inhibitor−slope negative control)/(slope positive control−slope negative control)]×100 Rat Whole Blood Assay

For orientation: IC50 means the concentration at which inhibition is half-maximal. `O=C(O)c1ccc(OCCc2c(CCNS(=O)(=O)Cc3ccccc3OCc3ccccc3)n(C(c3ccccc3)c3ccccc3)c3ccc(Cl)cc23)cc1` [Example 1, 4-{2-[2-[2-({[2-(benzyloxy)benzyl]sulfonyl}amino)ethyl]-5-chloro-1-(diphenylmethyl)-1H-indol-3-yl]ethoxy}benzoic acid]: the values for the IC50 in the experiment with TXB2 (Rattus norvegicus) and at cPLA2α were 140 nM and 260 nM, respectively.

Turning to `O=C(O)c1ccc(OCCc2c(CCNS(=O)(=O)Cc3ccccc3O)n(C(c3ccccc3)c3ccccc3)c3ccc(Cl)cc23)cc1` [Example 2, 4-{2-[5-chloro-1-(diphenylmethyl)-2-(2-{[(2-hydroxybenzyl)sulfonyl]amino}ethyl)-1H-indol-3-yl]ethoxy}benzoic acid], the figures for the IC50 in the experiment with TXB2 (Rattus norvegicus) and against cPLA2α were 120 nM and 190 nM, respectively.

For `O=C(O)c1ccc(OCCc2c(CCNS(=O)(=O)Cc3c(Br)cccc3Br)n(C(c3ccccc3)c3ccccc3)c3ccc(Cl)cc23)cc1` [Example 3, 4-{2-[5-chloro-2-(2-{[(2,6-dibromobenzyl)sulfonyl]amino}ethyl)-1-(diphenylmethyl)-1H-indol-3-yl]ethoxy}benzoic acid], the IC50 in the experiment on TXB2 (Rattus norvegicus) stood at 60 nM; at cPLA2α, 54 nM.

`Cc1cccc([N+](=O)[O-])c1CS(=O)(=O)NCCc1c(CCOc2ccc(C(=O)O)cc2)c2cc(Cl)ccc2n1C(c1ccccc1)c1ccccc1` [Example 4, 4-(2-{1-benzhydryl-5-chloro-2-[2-methyl-6-nitro-phenylmethanesulfonylamino)-ethyl-1-H-indol-3-yl}ethoxy)-benzoic acid]: the IC50 worked out at 20 nM in the experiment on TXB2 and 54 nM against cPLA2α.

Turning to `O=C(O)c1ccc(OCCc2c(CCNS(=O)(=O)Cc3ccccc3C(F)(F)F)n(C(c3ccccc3)c3ccccc3)c3ccc(Cl)cc23)cc1` [Example 5, 4-(2-{5-chloro-1-(diphenylmethyl)-2-[2-({[2-(trifluoromethyl)benzyl]sulfonyl}amino)ethyl]-1H-indol-3-yl}ethoxy)benzoic acid], the IC50 in the experiment with TXB2 (Rattus norvegicus) was 20 nM; at cPLA2α, 26 nM.

As to `O=C(O)c1ccc(OCCc2c(CCNS(=O)(=O)Cc3c(F)cccc3C(F)(F)F)n(C(c3ccccc3)c3ccccc3)c3ccc(Cl)cc23)cc1` [Example 6, 4-(2-{5-chloro-1-(diphenylmethyl)-2-[2-({[2-fluoro-6-(trifluoromethyl)benzyl]sulfonyl}amino)ethyl]-1H-indol-3-yl}ethoxy)benzoic acid], the values for the IC50 with TXB2 (Rattus norvegicus) and at cPLA2α were 80 nM and 92 nM, respectively.

Consider `O=C(O)c1ccc(CCCc2c(CCNS(=O)(=O)Cc3c(Br)cccc3Br)n(C(c3ccccc3)c3ccccc3)c3ccc(Cl)cc23)cc1` [Example 7, 4-{3-[5-chloro-2-(2-{[(2,6-dibromobenzyl)sulfonyl]amino}ethyl)-1-(diphenylmethyl)-1H-indol-3-yl]propyl}benzoic acid], for which the values for the IC50 in the experiment with TXB2 (Rattus norvegicus) and on cPLA2α were 30 nM and 18 nM, respectively.

For the compound `O=C(O)c1ccc(CCCc2c(CCNS(=O)(=O)Cc3c(Cl)cccc3Cl)n(C(c3ccccc3)c3ccccc3)c3ccc(Cl)cc23)cc1` [Example 8, 4-{3-[5-chloro-2-(2-{[(2,6-dichlorobenzyl)sulfonyl]amino}ethyl)-1-(diphenylmethyl)-1H-indol-3-yl]propyl}benzoic acid], the IC50 in the experiment with TXB2 (Rattus norvegicus) was determined as 20 nM; against cPLA2α, 24 nM.

Take `Cc1cccc([N+](=O)[O-])c1CS(=O)(=O)NCCc1c(CCCc2ccc(C(=O)O)cc2)c2cc(Cl)ccc2n1C(c1ccccc1)c1ccccc1` [Example 9]: the results for the IC50 with TXB2 and at cPLA2α were 20 nM and 22 nM, respectively.

`CN(CCc1c(CCCc2ccc(C(=O)O)cc2)c2cc(Cl)ccc2n1C(c1ccccc1)c1ccccc1)S(=O)(=O)Cc1ccccc1C(F)(F)F` [Example 11, 4-(3-{5-chloro-1-(diphenylmethyl)-2-[2-(methyl{[2-(trifluoromethyl)benzyl]sulfonyl}amino)ethyl]-1H-indol-3-yl}propyl)benzoic acid]: the IC50 with TXB2 (Rattus norvegicus) is 380 nM; against cPLA2α, 280 nM.

`O=C(O)c1ccc(CCCc2c(CCNS(=O)(=O)Cc3c(C(F)(F)F)cccc3C(F)(F)F)n(C(c3ccccc3)c3ccccc3)c3ccc(Cl)cc23)cc1` [Example 12, 4-{3-[2-[2-({[2,6-bis(trifluoromethyl)benzyl]sulfonyl}amino)ethyl]-5-chloro-1-(diphenylmethyl)-1H-indol-3-yl]propyl}benzoic acid]: the results for the concentration for half-maximal inhibition (IC50) in the experiment with TXB2 (Rattus norvegicus) and against cPLA2α were 40 nM and 21 nM, respectively.

Regarding `COC(=O)c1ccccc1CS(=O)(=O)NCCc1c(CCCc2ccc(C(=O)O)cc2)c2cc(Cl)ccc2n1C(c1ccccc1)c1ccccc1` [Example 13, 4-(3-{5-chloro-1-(diphenylmethyl)-2-[2-({[2-(methoxycarbonyl)benzyl]sulfonyl}amino)ethyl]-1H-indol-3-yl}propyl)benzoic acid], the IC50 stood at 30 nM in the experiment with TXB2 (Rattus norvegicus) and 26 nM against cPLA2α.

On to `O=Cc1ccccc1CS(=O)(=O)NCCc1c(CCCc2ccc(C(=O)O)cc2)c2cc(Cl)ccc2n1C(c1ccccc1)c1ccccc1` [Example 16, 4-{3-[5-chloro-1-(diphenylmethyl)-2-(2-{[(2-formylbenzyl)sulfonyl]amino}ethyl)-1H-indol-3-yl]propyl}benzoic acid], for which the IC50 in the experiment on TXB2 (Rattus norvegicus) was determined as 50 nM; at cPLA2α, 23 nM.

Regarding `O=C(O)c1ccc(CCCc2c(CCNS(=O)(=O)Cc3ccccc3CN3CCOCC3)n(C(c3ccccc3)c3ccccc3)c3ccc(Cl)cc23)cc1` [Example 17, 4-(3-{5-chloro-1-(diphenylmethyl)-2-[2-({[2-(morpholin-4-ylmethyl)benzyl]sulfonyl}amino)ethyl]-1H-indol-3-yl}propyl)benzoic acid], the IC50 in the experiment on TXB2 (Rattus norvegicus) is 20 nM; against cPLA2α it was 10 nM.

As to `CCN(CC)Cc1ccccc1CS(=O)(=O)NCCc1c(CCCc2ccc(C(=O)O)cc2)c2cc(Cl)ccc2n1C(c1ccccc1)c1ccccc1` [Example 18, 4-{3-[5-chloro-2-{2-[({2-[(diethylamino)methyl]benzyl}sulfonyl)amino]ethyl}-1-(diphenylmethyl)-1H-indol-3-yl]propyl}benzoic acid], the IC50 was 40 nM with TXB2 (Rattus norvegicus) and 25 nM at cPLA2α.

On to `O=C(O)c1ccc(CCCc2c(CCNS(=O)(=O)Cc3ccccc3CO)n(C(c3ccccc3)c3ccccc3)c3ccc(Cl)cc23)cc1` [Example 19, 4-(3-{5-chloro-1-(diphenylmethyl)-2-[2-({[2-(hydroxymethyl)benzyl]sulfonyl}amino)ethyl]-1H-indol-3-yl}propyl)benzoic acid], for which the IC50 amounted to 30 nM in the experiment on TXB2 (Rattus norvegicus) and 22 nM against cPLA2α.

For `CN1CCN(Cc2ccccc2CS(=O)(=O)NCCc2c(CCCc3ccc(C(=O)O)cc3)c3cc(Cl)ccc3n2C(c2ccccc2)c2ccccc2)CC1` [Example 22, 4-[3-(5-chloro-1-(diphenylmethyl)-2-{2-[({2-[(4-methylpiperazin-1-yl)methyl]benzyl}sulfonyl)amino]ethyl}-1H-indol-3-yl)propyl]benzoic acid], the IC50 turned out to be 80 nM in the experiment with TXB2 (Rattus norvegicus) and 21 nM at cPLA2α.

For `CC(c1ccccc1C(F)(F)F)S(=O)(=O)NCCc1c(CCCc2ccc(C(=O)O)cc2)c2cc(Cl)ccc2n1C(c1ccccc1)c1ccccc1` (stereo not drawn) [Example 23, 4-[3-(5-chloro-1-(diphenylmethyl)-2-{2-[({1-[2-(trifluoromethyl)phenyl]ethyl}sulfonyl)amino]ethyl}-1H-indol-3-yl)propyl]benzoic acid], the IC50 with TXB2 (Rattus norvegicus) stood at 40 nM; against cPLA2α, 105 nM.
